Earlier results in patent US20230233522A1, “COMPOSITIONS AND METHODS FOR TREATING EPILEPSY, SEIZURES AND OTHER CONDITIONS” (TULEX PHARMACEUTICALS INC., priority 2019, published 2023).

solubility in water: about 9.8 mg/ml
Compound: CC1(C)O[C@@H]2[C@@H](CO[C@@]3(COS(N)(=O)=O)OC(C)(C)O[C@@H]23)O1 [Topiramate, 2,3:4,5-Di-O-isopropylidine-β-D-fructopyranose sulfamate]
